Reference: ChEMBL document CHEMBL1149799, “Bioactive peroxides as potential therapeutic agents” (Eur J Med Chem, 2008)
Converted amounts (≈) assume the structure as drawn.

Assays:
HCT-116 = assay: Cytotoxicity against human HCT116 cells; format: functional, cell-based
[1] = Cytotoxicity against human MKN1 cells; format: functional, cell-based; conditions: MKN-1
SNB-75 = assay: Cytotoxicity against human SNB75 cells; format: functional, cell-based
NCI-H226 = assay: Cytotoxicity against human NCI-H226 cells; format: functional, cell-based
[2] = Cytotoxicity against human BSY1 cells; format: functional, cell-based; conditions: BSY-1
NCI-H23 = assay: Cytotoxicity against human NCI-H23 cells; format: functional, cell-based
MCF7 = assay: Cytotoxicity against human MCF7 cells; format: functional, cell-based; conditions: Homo sapiens, MCF7
OVCAR-8 = assay: Cytotoxicity against human OVCAR8 cells; format: functional, cell-based
MKN-28 = assay: Cytotoxicity against human MKN28 cells; format: functional, cell-based
DU-145 = assay: Cytotoxicity against human DU145 cells; format: functional, cell-based; conditions: Homo sapiens, DU-145
[3] = Cytotoxicity against human RXF63IL cells; format: functional, cell-based
OVCAR-4 = assay: Cytotoxicity against human OVCAR4 cells; format: functional, cell-based
SK-OV-3 = assay: Cytotoxicity against human SK-OV-3 cells; format: functional, cell-based
NCI-H522 = assay: Cytotoxicity against human NCI-H522 cells; format: functional, cell-based
SF-295 = assay: Cytotoxicity against human SF295 cells; format: functional, cell-based
LOX IMVI = assay: Cytotoxicity against human LOXI MVI cells; format: functional, cell-based
[4] = Cytotoxicity against human HBC5 cells; format: functional, cell-based
MKN-74 = assay: Cytotoxicity against human MKN74 cells; format: functional, cell-based
OVCAR-5 = assay: Cytotoxicity against human OVCAR5 cells; format: functional, cell-based
[5] = Cytotoxicity against human HBC4 cells; format: functional, cell-based
DMS-114 = assay: Cytotoxicity against human DMS114 cells; format: functional, cell-based
MDA-MB-231 = assay: Cytotoxicity against human MDA-MB-231 cells; format: functional, cell-based
OVCAR-3 = assay: Cytotoxicity against human OVCAR-3 cells; format: functional, cell-based
KM12 = assay: Cytotoxicity against human KM12 cells; format: functional, cell-based
St-4 = assay: Cytotoxicity against human ST4 cells; format: functional, cell-based
DMS-273 = assay: Cytotoxicity against human DMS273 cells; format: functional, cell-based
SNB-78 = assay: Cytotoxicity against human SNB78 cells; format: functional, cell-based
HCC 2998 = assay: Cytotoxicity against human HCC2998 cells; format: functional, cell-based
SF-539 = assay: Cytotoxicity against human SF539 cells; format: functional, cell-based
ACHN = assay: Cytotoxicity against human ACHN cells; format: functional, cell-based
HCT-15 = assay: Cytotoxicity against human HCT15 cells; format: functional, cell-based
U-251 = assay: Cytotoxicity against human U251 cells; format: functional, cell-based
NCI-H460 = assay: Cytotoxicity against human NCI-H460 cells; format: functional, cell-based; conditions: Homo sapiens, NCI-H460
A549 = assay: Cytotoxicity against human A549 cells; format: functional, cell-based; conditions: Homo sapiens, A549
SF-268 = assay: Cytotoxicity against human SF268 cells; format: functional, cell-based; conditions: Homo sapiens, SF-268; read-out: IC50
HT-29 = assay: Cytotoxicity against human HT29 cells; format: functional, cell-based; conditions: Homo sapiens, HT-29
MKN-7 = assay: Cytotoxicity against human MKN7 cells; format: functional, cell-based
PC-3 = assay: Cytotoxicity against human PC3 cells; format: functional, cell-based; conditions: Homo sapiens, PC-3
MKN-45 = assay: Cytotoxicity against human MKN45 cells; format: functional, cell-based
[6] = target: Sodium-dependent serotonin transporter (Homo sapiens, UniProt P31645); assay: Inhibition of serotonin transporter
Chain of Sodium-dependent serotonin transporter (P31645 whole entry): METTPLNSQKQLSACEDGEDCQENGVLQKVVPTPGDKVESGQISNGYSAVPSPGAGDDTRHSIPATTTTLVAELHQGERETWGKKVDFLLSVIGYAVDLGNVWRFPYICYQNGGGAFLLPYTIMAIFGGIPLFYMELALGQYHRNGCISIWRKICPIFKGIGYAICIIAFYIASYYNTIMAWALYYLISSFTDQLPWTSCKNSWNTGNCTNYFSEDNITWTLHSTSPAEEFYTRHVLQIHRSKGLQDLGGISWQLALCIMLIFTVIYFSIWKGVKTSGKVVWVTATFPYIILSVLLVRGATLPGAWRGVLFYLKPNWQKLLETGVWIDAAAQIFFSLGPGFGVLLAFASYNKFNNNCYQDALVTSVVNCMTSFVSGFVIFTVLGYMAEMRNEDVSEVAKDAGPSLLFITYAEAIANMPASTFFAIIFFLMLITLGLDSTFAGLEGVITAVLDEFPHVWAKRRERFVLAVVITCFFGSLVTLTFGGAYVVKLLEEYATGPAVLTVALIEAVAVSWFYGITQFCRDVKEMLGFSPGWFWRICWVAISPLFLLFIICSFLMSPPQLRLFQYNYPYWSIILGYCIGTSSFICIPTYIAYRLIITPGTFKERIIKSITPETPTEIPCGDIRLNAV

[7] = target: Sodium-dependent dopamine transporter (Homo sapiens, UniProt Q01959); assay: Inhibition of dopamine uptake at DAT
Chain of Sodium-dependent dopamine transporter (Q01959 whole entry): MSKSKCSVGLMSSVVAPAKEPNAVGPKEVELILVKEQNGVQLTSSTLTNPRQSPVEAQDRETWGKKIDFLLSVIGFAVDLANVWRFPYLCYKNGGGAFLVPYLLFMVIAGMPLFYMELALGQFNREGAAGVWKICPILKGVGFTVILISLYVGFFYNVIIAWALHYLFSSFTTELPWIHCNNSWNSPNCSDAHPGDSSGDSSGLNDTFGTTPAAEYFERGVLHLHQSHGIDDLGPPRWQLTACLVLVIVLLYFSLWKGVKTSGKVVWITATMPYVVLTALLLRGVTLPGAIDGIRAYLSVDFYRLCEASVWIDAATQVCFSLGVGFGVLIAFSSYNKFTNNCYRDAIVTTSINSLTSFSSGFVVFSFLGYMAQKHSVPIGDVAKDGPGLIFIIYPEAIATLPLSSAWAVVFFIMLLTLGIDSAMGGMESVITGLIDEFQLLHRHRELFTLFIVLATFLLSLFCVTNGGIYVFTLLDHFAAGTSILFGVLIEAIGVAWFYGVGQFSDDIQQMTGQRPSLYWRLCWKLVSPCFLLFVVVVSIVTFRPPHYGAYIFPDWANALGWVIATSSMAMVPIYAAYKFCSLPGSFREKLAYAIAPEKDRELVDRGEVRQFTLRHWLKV

[8] = target: Sodium-dependent noradrenaline transporter (Homo sapiens, UniProt P23975); assay: Inhibition of noradrenaline transporter
Chain of Sodium-dependent noradrenaline transporter (P23975 whole entry): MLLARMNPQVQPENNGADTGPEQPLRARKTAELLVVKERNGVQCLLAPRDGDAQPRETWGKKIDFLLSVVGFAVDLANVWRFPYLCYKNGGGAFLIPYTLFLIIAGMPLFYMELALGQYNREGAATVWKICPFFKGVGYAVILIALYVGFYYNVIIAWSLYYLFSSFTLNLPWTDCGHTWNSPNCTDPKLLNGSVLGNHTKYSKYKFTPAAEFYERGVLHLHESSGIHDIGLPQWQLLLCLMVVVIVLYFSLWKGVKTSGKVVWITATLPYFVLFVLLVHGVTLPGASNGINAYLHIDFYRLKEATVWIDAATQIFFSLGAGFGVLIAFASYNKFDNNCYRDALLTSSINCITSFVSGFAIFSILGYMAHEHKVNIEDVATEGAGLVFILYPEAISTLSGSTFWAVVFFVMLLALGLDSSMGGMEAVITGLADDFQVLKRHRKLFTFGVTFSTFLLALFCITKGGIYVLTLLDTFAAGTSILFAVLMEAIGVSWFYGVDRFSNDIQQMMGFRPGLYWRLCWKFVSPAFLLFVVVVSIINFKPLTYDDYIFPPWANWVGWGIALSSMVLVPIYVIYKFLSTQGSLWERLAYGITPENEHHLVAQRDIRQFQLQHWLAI

[9] = Inhibition of L-glutamate transporter
[10] = Inhibition of gamma aminobutyric acid transporter
[11] = target: Prostaglandin G/H synthase 2 (Homo sapiens, UniProt P35354); assay: Inhibition of cyclooxygenase-2
Chain of Prostaglandin G/H synthase 2 (P35354 whole entry): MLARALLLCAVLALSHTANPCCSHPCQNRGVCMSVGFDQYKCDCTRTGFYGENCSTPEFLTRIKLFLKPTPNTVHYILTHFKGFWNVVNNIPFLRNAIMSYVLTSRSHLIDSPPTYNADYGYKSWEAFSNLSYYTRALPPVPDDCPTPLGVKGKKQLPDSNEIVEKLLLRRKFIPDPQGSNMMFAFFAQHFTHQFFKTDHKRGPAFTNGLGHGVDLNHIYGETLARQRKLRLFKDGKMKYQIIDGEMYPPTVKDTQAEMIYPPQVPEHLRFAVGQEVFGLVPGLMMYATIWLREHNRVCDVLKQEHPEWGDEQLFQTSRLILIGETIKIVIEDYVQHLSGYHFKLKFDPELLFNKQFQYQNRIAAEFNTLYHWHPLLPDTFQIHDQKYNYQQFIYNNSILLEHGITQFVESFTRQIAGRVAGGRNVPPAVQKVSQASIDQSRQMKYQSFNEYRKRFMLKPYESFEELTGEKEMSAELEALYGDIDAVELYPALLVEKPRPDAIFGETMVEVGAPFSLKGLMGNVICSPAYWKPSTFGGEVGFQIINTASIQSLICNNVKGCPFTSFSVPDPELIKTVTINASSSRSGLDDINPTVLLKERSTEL

[12] = target: Prostaglandin G/H synthase 1 (Homo sapiens, UniProt P23219); assay: Inhibition of cyclooxygenase-1
Chain of Prostaglandin G/H synthase 1 (P23219 whole entry): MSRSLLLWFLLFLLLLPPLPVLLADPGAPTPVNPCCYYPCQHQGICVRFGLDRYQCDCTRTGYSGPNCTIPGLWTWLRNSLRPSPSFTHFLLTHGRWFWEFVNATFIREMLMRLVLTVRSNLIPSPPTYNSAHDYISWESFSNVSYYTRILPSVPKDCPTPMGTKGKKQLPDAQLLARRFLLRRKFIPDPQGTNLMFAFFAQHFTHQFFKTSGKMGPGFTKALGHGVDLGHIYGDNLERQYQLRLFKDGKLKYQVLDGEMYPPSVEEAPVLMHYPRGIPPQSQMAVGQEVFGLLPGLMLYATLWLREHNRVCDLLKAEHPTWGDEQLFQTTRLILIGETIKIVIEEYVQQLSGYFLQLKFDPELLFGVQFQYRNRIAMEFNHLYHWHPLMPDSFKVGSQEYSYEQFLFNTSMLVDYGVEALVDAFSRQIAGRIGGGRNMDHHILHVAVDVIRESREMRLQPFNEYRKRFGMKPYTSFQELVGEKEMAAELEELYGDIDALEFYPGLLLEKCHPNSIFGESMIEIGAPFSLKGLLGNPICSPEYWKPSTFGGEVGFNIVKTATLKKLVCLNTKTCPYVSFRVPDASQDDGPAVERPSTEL

HeLa = assay: Cytotoxicity against human HeLa cells; format: functional, cell-based
PBMC [13] = assay: Cytotoxicity against human PBMC cells; format: cell-based
[14] = Cytotoxicity against human Fem-X cells; format: functional, cell-based
PBMC [15] = assay: Cytotoxicity against human PHA-activated PBMC cells; format: cell-based
K562 = assay: Cytotoxicity against human K562 cells; format: functional, cell-based
[16] = Cytotoxicity against human Bel-7721 cells; format: functional, cell-based
[17] = Cytotoxicity against human Anip-973 cells; format: functional, cell-based
SNU-354 = assay: Cytotoxicity against human SNU354 cells; format: functional, cell-based
[18] = Cytotoxicity against mouse sarcoma 180 cells; format: functional, cell-based
SNU1 = assay: Cytotoxicity against human SNU1 cells; format: functional, cell-based
[19] = Cytotoxicity against human SNUC4 cells; format: functional, cell-based; conditions: SNU-C4
[20] = target: Aldo-keto reductase family 1 member B1 (Rattus norvegicus, UniProt P07943); assay: Inhibition of rat lens aldose reductase

## C=C(C)[C@@H](C)/C=C/[C@@H](C)[C@H]1CC[C@@H]2[C@]1(C)CC=C1[C@]23C=C[C@]2(C[C@@H](O)CC[C@]12C)OO3
HCT-116
  IC50: 0.48 µg/mL (≈ 1.13 µM)
[1]
  IC50: 0.42 µg/mL (≈ 0.989 µM)
SNB-75
  IC50: 2.16 µg/mL (≈ 5.09 µM)
NCI-H226
  IC50: 0.63 µg/mL (≈ 1.48 µM)
[2]
  IC50: 0.6 µg/mL (≈ 1.41 µM)
NCI-H23
  IC50: 0.54 µg/mL (≈ 1.27 µM)
MCF7
  IC50: 0.36 µg/mL (≈ 0.848 µM)
OVCAR-8
  IC50: 0.22 µg/mL (≈ 0.518 µM)
MKN-28
  IC50: 0.84 µg/mL (≈ 1.98 µM)
DU-145
  IC50: 0.54 µg/mL (≈ 1.27 µM)
[3]
  IC50: 0.72 µg/mL (≈ 1.7 µM)
OVCAR-4
  IC50: 0.6 µg/mL (≈ 1.41 µM)
SK-OV-3
  IC50: 0.81 µg/mL (≈ 1.91 µM)
NCI-H522
  IC50: 0.57 µg/mL (≈ 1.34 µM)
SF-295
  IC50: 0.75 µg/mL (≈ 1.77 µM)
LOX IMVI
  IC50: 0.6 µg/mL (≈ 1.41 µM)
[4]
  IC50: 0.96 µg/mL (≈ 2.26 µM)
MKN-74
  IC50: 0.54 µg/mL (≈ 1.27 µM)
OVCAR-5
  IC50: 0.54 µg/mL (≈ 1.27 µM)
[5]
  IC50: 0.85 µg/mL (≈ 2 µM)
DMS-114
  IC50: 0.48 µg/mL (≈ 1.13 µM)
MDA-MB-231
  IC50: 1.26 µg/mL (≈ 2.97 µM)
OVCAR-3
  IC50: 0.19 µg/mL (≈ 0.447 µM)
KM12
  IC50: 0.6 µg/mL (≈ 1.41 µM)
St-4
  IC50: 0.69 µg/mL (≈ 1.62 µM)
DMS-273
  IC50: 0.54 µg/mL (≈ 1.27 µM)
SNB-78
  IC50: 1.17 µg/mL (≈ 2.76 µM)
HCC 2998
  IC50: 0.57 µg/mL (≈ 1.34 µM)
SF-539
  IC50: 0.84 µg/mL (≈ 1.98 µM)
ACHN
  IC50: 0.51 µg/mL (≈ 1.2 µM)
HCT-15
  IC50: 0.75 µg/mL (≈ 1.77 µM)
U-251
  IC50: 0.63 µg/mL (≈ 1.48 µM)
NCI-H460
  IC50: 0.61 µg/mL (≈ 1.44 µM)
A549
  IC50: 0.96 µg/mL (≈ 2.26 µM)
SF-268
  IC50: 1.02 µg/mL (≈ 2.4 µM)
HT-29
  IC50: 0.57 µg/mL (≈ 1.34 µM)
MKN-7
  IC50: 0.48 µg/mL (≈ 1.13 µM)
PC-3
  IC50: 0.57 µg/mL (≈ 1.34 µM)
MKN-45
  IC50: 0.54 µg/mL (≈ 1.27 µM)

## CC(C)=CCC[C@]1(C)[C@@H](CC=C(C)C)C[C@@]2(CC=C(C)C)C(=O)[C@@](CC=C(C)C)(CC3=C[C@@H]4[C@@H](C(C)C)CC[C@@](C)(OO)[C@H]4CC3)C(=O)[C@]1(C(=O)C(C)C)C2=O [HYDROPEROXYCADIFORIN]
[6]
  IC50: 0.0647 µM
[7]
  IC50: 0.0647 µM
[8]
  IC50: 0.0647 µM
[9]
  IC50: 0.5 µg/mL (≈ 0.647 µM)
[10]
  IC50: 0.05 µg/mL (≈ 0.0647 µM)

## C=C[C@@H]1[C@@H](O)C[C@@H]2[C@]3(CC[C@]4(C)[C@@H]([C@H](C)CCC(OO)C(=C)C)CC[C@@]24C)C[C@]13CCC(=O)OC (some centres undefined)
[11]
  IC50: 4.7 µg
[12]
  IC50: 43.7 µg

## C=C1C(=O)O[C@H]2C1C[C@@H](OC(C)=O)[C@@](C)(O)[C@@]13C=C[C@@](C)(OO1)[C@H]23 (some centres undefined) [APRESSIN]
HeLa
  IC50: 7.36 µg/mL (≈ 21.9 µM)
PBMC [13]
  IC50: 15.9 µg/mL (≈ 47.2 µM)
[14]
  IC50: 5.27 µg/mL (≈ 15.7 µM)
PBMC [15]
  IC50: 8.78 µg/mL (≈ 26.1 µM)
K562
  IC50: 4.44 µg/mL (≈ 13.2 µM)

## COC1=CC(=O)c2c(O)c(OC)c3c(c2C1=O)-c1c2c(c(O)c(OC)c1[C@@H](C(C)=O)[C@@](C)(O)C3)C(=O)C=C(OC)C2=O [HYPOCRELLIN D]
[16]
  IC50: 1.8 µg/mL (≈ 3.11 µM)
[17]
  IC50: 38.4 µg/mL (≈ 66.4 µM)
A549
  IC50: 8.8 µg/mL (≈ 15.2 µM)

## CC(C)[C@@H](C)/C=C/[C@@H](C)[C@H]1CC[C@@H]2[C@]1(C)CC[C@H]1[C@]23C=C[C@]2(C[C@@H](O)CC[C@]12C)OO3 [ERGOSTEROL PEROXIDE]
SNU-354
  IC50: 158 µM
[18]
  IC50: 74.1 µM
SNU1
  IC50: 18.7 µM
[19]
  IC50: 84.6 µM
[20]
  IC50: 35.9 µM
